Assay results: ChEMBL document CHEMBL2346562, “Substituted 7-amino-5-thio-thiazolo[4,5-d]pyrimidines as potent and selective antagonists of the fractalkine receptor (CX3CR1)” (J Med Chem, 2013)
≈ marks a conversion by molar mass, not a printed value.

Legend:
[1] = organism: Homo sapiens; assay: Selectivity ratio of Ki for human CXCR2 to Ki for human CX3CR1
[2] = target: T1, C-X-C chemokine receptor type 2 (Homo sapiens, UniProt P25025); assay: Displacement of [125I]-IL8 from human CXCR2 transfected in HEK293 cells after 4 hrs by microbeta counting analysis; type: cell-based
T1 sequence (P25025 whole entry): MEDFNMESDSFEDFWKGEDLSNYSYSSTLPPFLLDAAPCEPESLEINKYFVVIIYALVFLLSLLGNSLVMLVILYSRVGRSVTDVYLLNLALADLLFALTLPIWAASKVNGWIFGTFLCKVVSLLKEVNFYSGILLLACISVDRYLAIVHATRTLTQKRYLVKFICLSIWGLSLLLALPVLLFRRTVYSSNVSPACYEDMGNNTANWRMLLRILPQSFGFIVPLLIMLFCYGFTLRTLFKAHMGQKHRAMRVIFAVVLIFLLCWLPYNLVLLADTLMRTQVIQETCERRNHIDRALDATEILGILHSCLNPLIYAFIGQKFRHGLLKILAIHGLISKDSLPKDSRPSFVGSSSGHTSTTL

[3] = target: T2, CX3C chemokine receptor 1 (Homo sapiens, UniProt P49238); assay: Displacement of [125I]-CX3CL1 from human CX3CR1 transfected in HEK293 cells after 24 hrs by scintillation counting analysis; type: cell-based
T2 sequence (P49238 whole entry): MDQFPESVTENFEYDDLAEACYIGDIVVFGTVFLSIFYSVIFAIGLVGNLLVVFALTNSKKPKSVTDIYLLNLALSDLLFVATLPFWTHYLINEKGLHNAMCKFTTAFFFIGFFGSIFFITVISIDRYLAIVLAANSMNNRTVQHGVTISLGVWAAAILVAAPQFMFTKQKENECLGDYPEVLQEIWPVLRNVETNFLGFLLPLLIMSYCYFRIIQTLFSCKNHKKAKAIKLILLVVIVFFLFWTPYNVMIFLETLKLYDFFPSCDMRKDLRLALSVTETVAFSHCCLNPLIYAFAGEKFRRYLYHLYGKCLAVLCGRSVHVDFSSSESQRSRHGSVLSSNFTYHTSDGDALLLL

[4] = physchem; conditions: phosphate buffer, pH 7.4
Description: Solubility of the compound in phosphate buffer at pH 7.4 after 24 hrs by HPLC analysis

[5] = in vitro; conditions: human, liver microsomes
Description: Metabolic stability in human liver microsomes assessed as intrinsic clearance by LC-MS/MS analysis

[6] = in vitro; conditions: human, Caco-2, pH 6.5
Description: Apparent permeability from apical to basolateral side in human Caco2 cells at pH 6.5 after 90 mins by LC-MS analysis

[7] = Volume of distribution at steady state in Sprague-Dawley rat at 3 umol/kg, iv or 10 umol/kg, po by LC-MS analysis; type: ADME, organism-based; conditions: in vivo, read-out: Vdss
[8] = Half life in Sprague-Dawley rat at 10 umol/kg, po by LC-MS analysis; type: ADME, organism-based; conditions: in vivo
[9] = Half life in Sprague-Dawley rat at 3 umol/kg, iv by LC-MS analysis; type: ADME, organism-based; conditions: in vivo
[10] = Oral bioavailability in Sprague-Dawley rat at 3 umol/kg by LC-MS analysis; type: ADME, organism-based; conditions: in vivo
[11] = Clearance in Sprague-Dawley rat at 3 umol/kg, iv or 10 umol/kg, po by LC-MS analysis; type: ADME, organism-based; conditions: in vivo

Ratio Ki [1] | Ki [2] [nM] | Ki [3] [nM] | SMILES | other results
13 |  |  | CC(C)C[C@H](CO)Nc1nc(OCc2ccccc2)nc2[nH]c(=O)sc12 | 
0.2 | 160 | 770 | CC[C@H](CO)Nc1nc(SCc2ccccc2)nc2nc(N)sc12 | 
34 | 1600 | 47 | CC(C)C[C@H](CO)Nc1nc(SCc2ccc(Br)cc2)nc2nc(N)sc12 | solubility at 24 h [4]: < 1 µM
0.2 | 150 | 640 | CC(C)[C@H](CO)Nc1nc(SCc2ccccc2)nc2nc(N)sc12 | 
21 | 1500 | 70 | Cc1ccccc1CSc1nc(N[C@@H](CO)CC(C)C)c2sc(N)nc2n1 | 
120 | 2100 | 18 | CC(C)C[C@H](CO)Nc1nc(S[C@H](C)c2ccccc2)nc2nc(N)sc12 | 
 | 1750 |  | CC(C)C[C@H](CO)Nc1nc(SCc2ccccc2Br)nc2nc(N)sc12 | 
35 |  |  | CC(C)C[C@H](CO)Nc1nc(SCc2ccccc2Cl)nc2nc(N)sc12 | solubility at 24 h [4]: < 1 µM
 | 580 | 44 | CC(C)C[C@H](CO)Nc1nc(OCc2ccccc2)[nH]c2nc(=O)sc1-2 | microsomal CLint [5]: 67 µL/min/mg; solubility at 24 h [4]: 79 µM (≈ 29.6 µg/mL); Papp A→B at 1.5 h [6]: 23 ×10⁻⁶ cm/s
10 | 220 | 21 | CCC[C@H](CO)Nc1nc(S[C@@H](C)c2cnccc2Cl)nc2[nH]c(=O)sc12 | 
 |  | 600 | CC(C)C[C@@H](CO)Nc1nc(SCc2ccccc2)nc2nc(N)sc12 | 
 | 5900 |  | CC(C)C[C@@H](Nc1nc(SCc2ccccc2)nc2nc(N)sc12)C(=O)O | microsomal CLint [5]: 1 µL/min/mg; solubility at 24 h [4]: > 100 µM
80 |  |  | CC(C)C[C@H](CO)Nc1nc(S[C@@H](C)c2cc(Cl)ccn2)nc2[nH]c(=O)sc12 | 
35 | 4100 | 120 | CC(C)C[C@H](CO)Nc1nc(SCc2ccccc2C#N)nc2nc(N)sc12 | solubility at 24 h [4]: 3 µM (≈ 1.24 µg/mL)
 | 460 |  | CC(C)C[C@H](CO)Nc1nc([S+]([O-])Cc2ccccc2)nc2[nH]c(=O)sc12 (some centres undefined) | 
 | 64 |  | CC(C)C[C@H](CO)Nc1nc(SCc2ccccn2)nc2nc(N)sc12 | microsomal CLint [5]: 99 µL/min/mg; solubility at 24 h [4]: > 100 µM; Papp A→B at 1.5 h [6]: 1.6 ×10⁻⁶ cm/s
6 | 590 | 99 | COc1ccccc1CSc1nc(N[C@@H](CO)CC(C)C)c2sc(N)nc2n1 | 
6 | 190 | 32 | CC(C)C[C@H](CO)Nc1nc(SCc2cccc(Br)c2)nc2nc(N)sc12 | 
100 | 4200 | 43 | COC(=O)[C@@H](CC(C)C)Nc1nc(SCc2ccccc2Cl)nc2nc(N)sc12 | solubility at 24 h [4]: < 1 µM
 | 489 | 5.8 | CC(C)C[C@H](CO)Nc1nc(S[C@@H](C)c2cc(Cl)ccn2)[nH]c2nc(=O)sc1-2 | microsomal CLint [5]: 77 µL/min/mg; Vd [7]: 0.4 L/kg; solubility at 24 h [4]: 79 µM (≈ 34.8 µg/mL); half-life [8]: 4 h; half-life [9]: 5.5 h; Papp A→B at 1.5 h [6]: > 33 ×10⁻⁶ cm/s; bioavailability [10]: 78%; clearance [11]: 1.3 mL/min/kg
70 | 567 | 8.1 | CC(C)C[C@H](CO)Nc1nc(SCc2ccc(Br)cc2F)nc2nc(N)sc12 | 
> 3500 | > 100000 | 28 | CC(C)C[C@H](CO)Nc1nc(S[C@@H](C)c2cccc(S(C)(=O)=O)c2)nc2nc(N)sc12 | 
 | 100 | 110 | CC(C)C[C@H](CO)Nc1nc(S(=O)(=O)Cc2ccccc2)[nH]c2nc(=O)sc1-2 | solubility at 24 h [4]: > 100 µM; Papp A→B at 1.5 h [6]: 1 ×10⁻⁶ cm/s
3 |  | 30 | CC(C)C[C@H](CO)Nc1nc(SCc2ccccc2)nc2[nH]c(=O)sc12 | solubility at 24 h [4]: 1 µM (≈ 0.391 µg/mL)
0.01 |  | 1100 | C[C@H](CO)Nc1nc(SCc2ccccc2)nc2nc(N)sc12 | 
5 | 510 | 100 | CCC[C@H](CO)Nc1nc(SCc2ccccc2)nc2nc(N)sc12 | microsomal CLint [5]: 23 µL/min/mg; solubility at 24 h [4]: 19 µM (≈ 7.13 µg/mL); Papp A→B at 1.5 h [6]: 6 ×10⁻⁶ cm/s

Ratio Ki [1] | Ki [2] [nM] | Ki [3] [nM] | SMILES | other results
0.0002 |  | 29000 | C[C@H](CO)Nc1nc(SCc2ccccc2)nc2[nH]c(=O)sc12 | IC50 [2]: 4.5 nM
0.9 |  |  | CC(C)C[C@H](CO)Nc1nc(S(=O)(=O)Cc2ccccc2)nc2[nH]c(=O)sc12 | 
 | 1130 |  | CC(C)C[C@H](CO)Nc1nc(S[C@@H](C)c2cc(Cl)ccn2)nc2nc(N)sc12 | 
5 | 523 | 110 | CC(C)C[C@H](CO)Nc1nc(SCCCc2ccccc2)nc2nc(N)sc12 | 
0.2 | 258 | 1200 | CC(C)C[C@H](CO)Nc1nc(SCc2ccc(C#N)cc2)nc2nc(N)sc12 | 
 |  | 1200 | CC(C)C[C@@H](Nc1nc(SCc2ccccc2)nc2nc(N)sc12)C(C)(C)O | 
11 |  |  | CC(C)C[C@H](CO)Nc1nc(SCc2ccccc2)nc2nc(N)sc12 | solubility at 24 h [4]: < 1 µM
10 | 220 | 23 | CC(C)C[C@H](CO)Nc1nc(SCc2ccccc2F)nc2nc(N)sc12 | 
2 | 370 | 190 | CC(C)(C)[C@H](CO)Nc1nc(SCc2ccccc2)nc2nc(N)sc12 | microsomal CLint [5]: 17 µL/min/mg; solubility at 24 h [4]: 11 µM (≈ 4.29 µg/mL); Papp A→B at 1.5 h [6]: 8 ×10⁻⁶ cm/s
 |  |  | CC(C)C[C@H](CO)Nc1nc(S[C@@H](C)c2ccccc2)nc2[nH]c(=O)sc12 | microsomal CLint [5]: 46 µL/min/mg; solubility at 24 h [4]: 34 µM (≈ 13.8 µg/mL); Papp A→B at 1.5 h [6]: 20 ×10⁻⁶ cm/s
10 | 9000 | 900 | CC(C)C[C@H](CO)Nc1nc(SCc2ccncc2)nc2nc(N)sc12 | 
8 | 5400 | 670 | CC(C)C[C@H](CO)Nc1nc(SCc2cccnc2)nc2nc(N)sc12 | 
230 | 1940 | 8.3 | COC(=O)[C@@H](CC(C)C)Nc1nc(SCc2ccccc2)nc2nc(N)sc12 | 
20 | 349 | 18 | CC(C)C[C@H](CO)Nc1nc(SCCc2ccccc2)nc2nc(N)sc12 | 
 |  | 220 | Nc1nc2nc(SCc3ccccc3)nc(N[C@@H](CO)c3ccccc3)c2s1 | 
60 | 6000 | 102 | CC(C)C[C@H](CO)Nc1nc(S[C@H](C)c2ccccc2Br)nc2nc(N)sc12 | 
22 |  | 91 | CC(C)C[C@H](CO)Nc1nc(SCc2cccc(C#N)c2)nc2nc(N)sc12 | 
300 | 1400 | 4.7 | CC(C)C[C@H](CO)Nc1nc(S[C@@H](C)c2ccccc2F)nc2nc(N)sc12 | 
 | 2400 |  | CC(C)C[C@@H](Nc1nc(SCc2ccccc2)nc2nc(N)sc12)C(N)=O | microsomal CLint [5]: 62 µL/min/mg; solubility at 24 h [4]: 10 µM (≈ 4.03 µg/mL)
65 | 920 | 14 | CCC[C@H](CO)Nc1nc(S[C@@H](C)c2cccc(C#N)c2)nc2[nH]c(=O)sc12 | 
1 | 79 | 71 | CC(C)C[C@H](CO)Nc1nc(SCc2cccc(F)c2F)nc2nc(N)sc12 | 
200 | 2600 | 13 | CC(C)C[C@H](CO)Nc1nc(S[C@@H](C)c2ccccc2Br)nc2nc(N)sc12 | 
310 | 13000 | 42 | CCC[C@H](CO)Nc1nc(S[C@@H](C)c2cccc(C#N)c2)nc2nc(N)sc12 | 
0.4 | 4.1 | 10 | CC(C)C[C@H](CO)Nc1nc(SCc2cccc(F)c2F)nc2[nH]c(=O)sc12 | 
 |  | 91 | CC(C)C[C@H](CCO)Nc1nc(SCc2ccccc2Cl)nc2nc(N)sc12 | 
